This is an account of results in ChEMBL document CHEMBL6121064, “Recent Developments in 14-3-3 Stabilizers for Regulating Protein-Protein Interactions: An Update” (J Med Chem, 2025).

One experiment addresses T1, Estrogen receptor (Homo sapiens, UniProt P03372).
T1 sequence (P03372 whole entry): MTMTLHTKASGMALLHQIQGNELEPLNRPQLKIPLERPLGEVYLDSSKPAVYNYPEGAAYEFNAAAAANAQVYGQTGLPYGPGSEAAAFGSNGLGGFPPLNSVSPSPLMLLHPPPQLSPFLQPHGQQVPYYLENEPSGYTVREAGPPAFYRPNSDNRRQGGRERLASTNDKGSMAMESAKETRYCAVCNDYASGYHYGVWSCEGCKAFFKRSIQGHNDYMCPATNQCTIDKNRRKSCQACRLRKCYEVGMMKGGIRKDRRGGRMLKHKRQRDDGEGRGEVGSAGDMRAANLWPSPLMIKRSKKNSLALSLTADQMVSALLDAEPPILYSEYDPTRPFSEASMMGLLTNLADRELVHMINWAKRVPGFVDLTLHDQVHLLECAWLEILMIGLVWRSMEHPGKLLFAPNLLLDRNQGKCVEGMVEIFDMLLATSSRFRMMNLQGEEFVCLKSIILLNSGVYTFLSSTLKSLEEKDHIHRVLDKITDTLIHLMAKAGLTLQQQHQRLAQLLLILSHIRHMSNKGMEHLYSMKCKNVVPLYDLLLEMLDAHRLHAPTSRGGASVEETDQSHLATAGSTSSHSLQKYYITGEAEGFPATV
The experiment in a line: Inhibition of ERalpha (unknown origin).

Experiment [1] addresses RAF proto-oncogene serine/threonine-protein kinase (Homo sapiens, UniProt P04049). As to the kind of experiment: Inhibition of C-RAF (unknown origin).
For a further experiment, the system named is HL-60. The experiment in a line: cells. The following applies: Homo sapiens, HL-60, 72 h.
Another experiment relates to MIA PaCa-2. The experiment in a line: cells. The following applies: Homo sapiens, MIA PaCa-2, 48 h.
For experiment [2], the target named is T2, 14-3-3 protein beta/alpha (Homo sapiens, UniProt P31946).
T2 sequence (P31946 whole entry): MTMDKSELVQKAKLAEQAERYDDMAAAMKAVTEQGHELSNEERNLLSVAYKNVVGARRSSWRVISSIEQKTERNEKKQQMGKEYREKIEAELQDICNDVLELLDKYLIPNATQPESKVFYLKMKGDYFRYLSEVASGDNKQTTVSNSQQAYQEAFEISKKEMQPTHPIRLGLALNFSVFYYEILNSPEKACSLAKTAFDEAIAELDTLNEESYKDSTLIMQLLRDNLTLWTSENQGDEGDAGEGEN

In experiment [3] the target is T2, 14-3-3 protein beta/alpha. This is another data set of the same source.

RAF proto-oncogene serine/threonine-protein kinase, sequence (P04049 whole entry): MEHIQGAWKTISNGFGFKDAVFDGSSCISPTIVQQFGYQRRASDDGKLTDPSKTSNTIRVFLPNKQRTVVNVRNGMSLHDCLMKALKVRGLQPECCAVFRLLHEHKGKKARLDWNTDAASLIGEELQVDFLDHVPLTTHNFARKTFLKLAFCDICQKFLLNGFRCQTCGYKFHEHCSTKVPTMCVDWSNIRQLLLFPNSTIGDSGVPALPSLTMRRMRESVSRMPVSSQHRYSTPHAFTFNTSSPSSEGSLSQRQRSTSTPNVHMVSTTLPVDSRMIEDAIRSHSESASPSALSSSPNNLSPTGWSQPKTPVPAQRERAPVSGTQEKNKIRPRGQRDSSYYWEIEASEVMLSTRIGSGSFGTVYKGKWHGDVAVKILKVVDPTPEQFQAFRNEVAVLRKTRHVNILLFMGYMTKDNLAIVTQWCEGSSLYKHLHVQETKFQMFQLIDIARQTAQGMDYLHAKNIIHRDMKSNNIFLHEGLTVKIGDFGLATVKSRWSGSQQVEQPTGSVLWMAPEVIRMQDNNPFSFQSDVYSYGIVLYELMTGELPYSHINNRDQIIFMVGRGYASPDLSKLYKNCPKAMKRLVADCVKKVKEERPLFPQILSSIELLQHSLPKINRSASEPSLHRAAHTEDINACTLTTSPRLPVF
Description for HL-60: Antiproliferative activity against human HL-60 cells assessed as reduction in cell growth incubated for 72 hrs by MTT assay
Description for MIA PaCa-2: Antiproliferative activity against human MIA PaCa-2 cells assessed as reduction in cell growth measured after 48 hrs by MTT assay

For `O=C(C1=C(O)C(=O)N(c2ccc(O)c(C(=O)O)c2)C1c1ccc([N+](=O)[O-])cc1)c1ccccc1` (stereo not drawn), at Estrogen receptor, the 50% inhibitory concentration (IC50) stood at 80 µM. That is a double-digit micromolar value.
As for `CC(C)CC(NC(=O)[C@H](O)[C@H](N)Cc1ccccc1)C(=O)O` (stereo partly drawn), the half-maximal inhibitory concentration (IC50) at Estrogen receptor stood at 1.8 µM.
In experiment [1], `CN(C)CCSSCCC(=O)N1CCC(O)(c2cccc(C(F)(F)F)c2)CC1` showed an IC50 of 77 µM.
`CN(C)CCSSCCNC(=O)C1CCN(C(=O)C(C)(C)Oc2ccc(Cl)cc2)CC1`: the IC50 was found to be 19 µM on Estrogen receptor and 81 µM in experiment [1].
Regarding `CN(C)CCSSCCNC(=O)C1CCCN(C(=O)c2ccc(Oc3ccccc3)cc2)C1` (stereo not drawn), the concentration for half-maximal inhibition (IC50) (against Estrogen receptor; in experiment [1]) was 426 µM each time.
For `COc1ccc2cc([C@H](C)C(=O)N3CCC(C(=O)NCCSSCCN(C)C)CC3)ccc2c1`, the IC50 in experiment [1] stood at 246 µM.
As for `COC[C@H]1CC[C@@H]2/C1=C\[C@@]1(C)CCC(C(C)C)=C1C(O[C@@H]1O[C@@H](CNCc3ccccc3)[C@H](O)[C@@H](O)[C@@H]1O)[C@H](O)[C@@H]2C` (stereo partly drawn), the IC50 with HL-60 stood at 250 nM. This lies in the sub-micromolar range.
For the compound `COC[C@H]1CC[C@@H]2/C1=C\[C@@]1(C)CCC(C(C)C)=C1C(O[C@@H]1O[C@H]3COC(C)(C)O[C@@H]3[C@@H](O)[C@@H]1O)[C@H](O)[C@@H]2C` (stereo partly drawn), 18 µM corresponded to half-maximal inhibition in the experiment on MIA PaCa-2 (IC50).
In experiment [2], `N=C(N)c1cc(-c2cccc(NC(=O)C3(Oc4ccc(Cl)cc4)CCC(N)CC3)c2)cs1` (stereo not drawn) gave a concentration for half-maximal inhibition (IC50) of 151 µM.
With `O=Cc1ccc(-n2ccnc2-c2ccc(F)cc2F)cc1Br`, the 50% inhibitory concentration (IC50) in experiment [3] was determined as 250 µM.
With `NCCCNCCS` [WR-1065], it took 2.8 µM to reach half-maximal inhibition against Estrogen receptor (IC50).

As usually defined, the IC50 is the concentration that inhibits the measured activity by half.
